Experimental data: publication PMC3400123 (Bioorganic & medicinal chemistry, 2012)

Legend:
human P-gp-His10 = human P-gp-His10 (Homo sapiens, UniProt P08183); experiment: Stimulation of ATPase activity of isolated human P-gp-His10; conditions: read-out: KM (concentration of compound required to achieve 50% maximal stimulation); isolated human P-gp-His10 in sheep brain phosphatidylethanolamine
MDCKII-MDR1 cells = experiment: Transport and cell association across MDCKII-MDR1 monolayers; format: in vitro ADME; conditions: for PAB (+ inh): absorptive direction; for PAB (+ inh) / PBA (+ inh): with 5 × 10^−6 M LSN 335984, 5 × 10^−6 M dye, BSA; for PBA / PBA (+ inh): secretory direction; for PBA: no inhibitor, 5 × 10^−6 M dye, 4.3 mg mL^−1 BSA; for Ratio (+/− inh) for % cell associated dye: inhibited / uninhibited pump

human P-gp-His10, sequence (P08183 whole entry): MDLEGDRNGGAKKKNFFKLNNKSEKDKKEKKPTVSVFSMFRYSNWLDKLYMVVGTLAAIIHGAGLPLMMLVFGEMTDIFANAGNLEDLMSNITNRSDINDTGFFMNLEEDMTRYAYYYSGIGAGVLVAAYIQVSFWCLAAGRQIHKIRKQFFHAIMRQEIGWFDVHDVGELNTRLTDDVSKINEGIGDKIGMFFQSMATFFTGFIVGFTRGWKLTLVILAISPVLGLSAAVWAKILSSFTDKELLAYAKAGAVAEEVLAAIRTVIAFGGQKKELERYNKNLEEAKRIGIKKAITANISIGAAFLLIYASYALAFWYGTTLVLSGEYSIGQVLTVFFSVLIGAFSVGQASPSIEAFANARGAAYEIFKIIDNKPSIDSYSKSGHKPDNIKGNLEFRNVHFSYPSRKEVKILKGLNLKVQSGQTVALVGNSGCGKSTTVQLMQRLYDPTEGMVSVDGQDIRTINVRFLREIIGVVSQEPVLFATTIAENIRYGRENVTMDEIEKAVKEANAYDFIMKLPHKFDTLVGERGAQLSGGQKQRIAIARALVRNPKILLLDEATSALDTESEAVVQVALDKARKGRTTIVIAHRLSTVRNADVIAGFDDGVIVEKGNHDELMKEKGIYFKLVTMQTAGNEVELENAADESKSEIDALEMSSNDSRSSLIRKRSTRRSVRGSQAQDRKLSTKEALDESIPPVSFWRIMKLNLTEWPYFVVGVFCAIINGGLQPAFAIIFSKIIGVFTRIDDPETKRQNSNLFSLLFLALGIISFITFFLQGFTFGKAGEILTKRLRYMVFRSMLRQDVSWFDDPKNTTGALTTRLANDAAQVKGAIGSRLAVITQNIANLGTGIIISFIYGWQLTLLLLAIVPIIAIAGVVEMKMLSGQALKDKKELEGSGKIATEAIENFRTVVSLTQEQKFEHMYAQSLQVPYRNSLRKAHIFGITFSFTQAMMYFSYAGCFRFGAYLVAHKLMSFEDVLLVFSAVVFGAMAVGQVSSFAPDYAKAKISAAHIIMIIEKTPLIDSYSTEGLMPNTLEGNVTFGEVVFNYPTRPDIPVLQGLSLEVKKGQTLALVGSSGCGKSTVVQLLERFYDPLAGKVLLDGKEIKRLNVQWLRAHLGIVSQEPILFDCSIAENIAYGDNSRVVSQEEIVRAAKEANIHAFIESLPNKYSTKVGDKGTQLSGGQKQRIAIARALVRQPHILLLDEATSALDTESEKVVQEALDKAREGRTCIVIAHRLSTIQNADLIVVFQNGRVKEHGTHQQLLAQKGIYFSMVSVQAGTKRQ

| SMILES | Km (human P-gp-His10) [µM] | PAB (+ inh) (MDCKII-MDR1 cells) | PBA (MDCKII-MDR1 cells) | Ratio (+/− inh) for % cell associated dye (MDCKII-MDR1 cells) | PBA (+ inh) (MDCKII-MDR1 cells) |
| --- | --- | --- | --- | --- | --- |
| CCN(CC)C(=O)c1ccc(-c2c3ccc(N(C)C)cc3[s+]c3cc(N(C)C)ccc23)s1 [Compound 1, 3,6-bis(dimethylamino)-9-(5-(diethylcarbamoyl)thiophen-2-yl)thioxan-thylium hexafluorophosphate] | 5.7 ± 1 | – | – | – | – |
| CCN(CC)C(=S)c1ccc(-c2c3ccc(N(C)C)cc3[s+]c3cc(N(C)C)ccc23)s1.F[P-](F)(F)(F)(F)F [Compound 2, 3,6-bis(dimethylamino)-9-(5-(diethylcarbamothioyl)thiophen-2-yl)thioxanthylium hexafluorophosphate] | 5.8 ± 0.6 | ≤ 1 ≤ 1 10^−9 m s^−1 | 210 ± 17 10^−9 m s^−1 | – | – |
| CCN(CC)C(=O)c1ccc(-c2c3ccc(N(C)C)cc3[s+]c3c4c5c(cc23)CCCN5CCC4)s1.F[P-](F)(F)(F)(F)F [Compound 5, 12-(dimethylamino)-2,3,6,7-tetrahydro-9-(5-(diethylcarbamoyl)thiophen-2-yl)-1H,5H-thioxantheno[2,3,4-ij]quinolizin-14-ium hexafluorophosphate] | 3.6 ± 0.4 | ≤ 1 ≤ 1 10^−9 m s^−1 | 210 ± 22 10^−9 m s^−1 | 3.3-6.1 | 17.0 ± 0.4 10^−9 m s^−1 |
| CCN(CC)C(=S)c1ccc(-c2c3ccc(N(C)C)cc3[s+]c3c4c5c(cc23)CCCN5CCC4)s1.F[P-](F)(F)(F)(F)F [Compound 6, 12-(Dimethylamino)-2,3,6,7-tetrahydro-9-(5-(diethylcarbamothioyl)-thiophen-2-yl)-1H,5H-thioxantheno[2,3,4-ij]quinolizin-14-ium hexafluorophosphate] | 2.3 ± 0.4 | ≤ 1 ≤ 1 10^−9 m s^−1 | 65.0 ± 1.5 10^−9 m s^−1 | 1.2-2.1 | 2.7 ± 0.1 10^−9 m s^−1 |
| CN(C)c1ccc2c(-c3ccc(C(=O)N4CCCCC4)s3)c3cc4c5c(c3[s+]c2c1)CCCN5CCC4.F[P-](F)(F)(F)(F)F [Compound 7, 12-(dimethylamino)-2,3,6,7-tetrahydro-9-(N-piperidyl-2-thienyl-5-carboxamido)-1H,5H-thioxantheno[2,3,4-ij]quinolizin-14-ium hexafluorophosphate] | 1.9 ± 0.4 | ≤ 1 ≤ 1 10^−9 m s^−1 | 220 ± 29 10^−9 m s^−1 | 3.3-6.1 | 8.1 ± 0.1 10^−9 m s^−1 |
| CCN(CC)C(=O)c1ccc(-[c+]2c3ccc(N(C)C)cc3sc3cc4c(cc32)C(C)(C)CCN4C)s1.F[P-](F)(F)(F)(F)F [Compound 9, 6-(5-(diethylcarbamoyl)thiophen-2-yl)-9-(dimethylamino)-1,4,4-trimethyl-2,3,4,6-tetrahydro-1H-thiochromeno[3,2-g]quinolin-6-ylium hexafluorophosphate] | 2.2 ± 1 | ≤ 1 ≤ 1 10^−9 m s^−1 | 370 ± 17 10^−9 m s^−1 | 3.3-6.1 | 27.0 ± 0.3 10^−9 m s^−1 |
| CCN(CC)C(=S)c1ccc(-[c+]2c3ccc(N(C)C)cc3sc3cc4c(cc32)C(C)(C)CCN4C)s1.F[P-](F)(F)(F)(F)F [Compound 10, 6-(5-(diethylcarbamothioyl)thiophen-2-yl)-9-(dimethylamino)-1,4,4-trimethyl-2,3,4,6-tetrahydro-1H-thiochromeno[3,2-g]quinolin-6-ylium hexafluorophosphate] | 3.1 ± 0.7 | ≤ 1 ≤ 1 10^−9 m s^−1 | – | 1.2-2.1 | 1.0 ± 0.1 10^−9 m s^−1 |
